# Reference: PubChem BioAssay (NCI)
#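 A five-concentration, 48-hour dose response in 96-well plates underlies each endpoint, interpolated linearly between surrounding concentrations. GI50 is the concentration that inhibits growth by half. TGI: total growth inhibition.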 Where a SMILES comes first, the peptide text is derived from it. The star is where a group is joined. CH2Cl = ClC*
# Key:
# Assay in all cases: DTP human tumour cell line panel, 48 h
# [1] = test system: RXF 393 renal
# [2] = test system: NCI-H522 lung
# [3] = test system: OVCAR-5 ovarian
# [4] = test system: MCF7 breast
# [5] = test system: MALME-3M melanoma
# [6] = test system: RPMI-8226 leukemia
# [7] = test system: HOP-62 NSCLC
# [8] = test system: SF-268 CNS
# [9] = test system: COLO 205 colon
# [10] = test system: T-47D breast
# [11] = test system: UO-31 renal
# [12] = test system: U251 CNS
# [13] = test system: PC-3 prostate
# [14] = test system: SR leukemia
# [15] = test system: BT-549 breast
# [16] = test system: UACC-62 melanoma
# [17] = test system: SK-MEL-5 melanoma
# [18] = test system: SN12C renal
# [19] = test system: HCT-15 colon
# [20] = test system: SK-OV-3 ovarian
# [21] = test system: SNB-75 CNS
# [22] = test system: HCT-116 colon
# [23] = test system: MDA-MB-435
# [24] = test system: SF-539 CNS
# [25] = test system: TK-10 renal
# [26] = test system: LOX IMVI melanoma
# [27] = test system: NCI/ADR-RES ovarian
# [28] = test system: SK-MEL-2 melanoma
# [29] = test system: HOP-92 NSCLC
# [30] = test system: OVCAR-8 ovarian
# [31] = test system: SF-295 CNS
# [32] = test system: HS 578T breast
# [33] = test system: MOLT-4 leukemia
# [34] = test system: KM12 colon
# [35] = test system: NCI-H226 lung
# [36] = test system: ACHN renal
# [37] = test system: EKVX NSCLC
# [38] = test system: SNB-19 CNS
# [39] = test system: 786-0 renal
# [40] = test system: NCI-H460 lung
# [41] = test system: CCRF-CEM leukemia
# [42] = test system: SW-620 colon
# [43] = test system: OVCAR-4 ovarian
# [44] = test system: MDA-N
# [45] = test system: HL-60(TB) leukemia
# [46] = test system: A498 renal
# [47] = test system: UACC-257 melanoma
# [48] = test system: DU-145 prostate
# [49] = test system: OVCAR-3 ovarian
# [50] = test system: MDA-MB-231 breast
# [51] = test system: SK-MEL-28 melanoma
# [52] = test system: K-562 leukemia
# [53] = test system: NCI-H23 lung
# [54] = test system: CAKI-1 renal
# [55] = test system: HCC-2998 colon
# [56] = test system: A549 NSCLC
# [57] = test system: IGROV1 ovarian
# [58] = test system: HT29 colon
# [59] = test system: M14 melanoma
structure (smiles),measurement,setting,value
O=NNc1ccc(S(=O)c2ccccc2)cn1 (configuration not stated),TGI,[1],> 93.7 µM
same,TGI,[2],> 100 µM
same,TGI,[3],> 100 µM
same,TGI,[4],> 100 µM
same,TGI,[5],> 100 µM
same,GI50,[6],> 100 µM
same,TGI,[6],> 100 µM
same,TGI,[7],> 100 µM
same,TGI,[8],> 100 µM
same,TGI,[9],> 100 µM
same,TGI,[10],> 100 µM
same,TGI,[11],> 100 µM
same,TGI,[12],> 100 µM
same,TGI,[13],> 100 µM
same,TGI,[14],> 100 µM
same,TGI,[15],> 100 µM
same,TGI,[16],> 100 µM
same,TGI,[17],> 100 µM
same,TGI,[18],> 100 µM
same,TGI,[19],> 100 µM
same,TGI,[20],> 100 µM
same,TGI,[21],> 100 µM
same,TGI,[22],> 100 µM
same,GI50,[23],> 100 µM
same,TGI,[23],> 100 µM
same,TGI,[24],> 100 µM
same,TGI,[25],> 100 µM
same,GI50,[26],> 100 µM
same,TGI,[26],> 100 µM
same,TGI,[27],> 100 µM
same,GI50,[28],> 100 µM
same,TGI,[28],> 100 µM
same,GI50,[29],12.2 µM
same,TGI,[29],> 100 µM
same,TGI,[30],> 100 µM
same,TGI,[31],> 100 µM
same,TGI,[32],> 100 µM
same,TGI,[33],> 100 µM
same,TGI,[34],> 100 µM
same,TGI,[35],> 100 µM
same,TGI,[36],> 100 µM
same,TGI,[37],> 100 µM
same,TGI,[38],> 100 µM
same,TGI,[39],> 100 µM
same,TGI,[40],> 100 µM
same,TGI,[41],> 100 µM
same,TGI,[42],> 100 µM
same,TGI,[43],> 100 µM
same,TGI,[44],> 100 µM
same,TGI,[45],> 100 µM
same,TGI,[46],> 100 µM
same,TGI,[47],> 100 µM
same,TGI,[48],> 100 µM
same,TGI,[49],> 100 µM
same,TGI,[50],> 100 µM
same,TGI,[51],> 100 µM
same,TGI,[52],> 100 µM
same,TGI,[53],> 100 µM
same,TGI,[54],> 100 µM
same,GI50,[55],> 100 µM
same,TGI,[55],> 100 µM
same,TGI,[56],> 100 µM
same,TGI,[57],> 100 µM
same,TGI,[58],> 100 µM
same,TGI,[59],> 100 µM
CCN(CC)c1ncnc2c1ncn2CCNC(CO)(CO)CO,TGI,[1],> 100 µM
same,TGI,[2],> 100 µM
same,TGI,[3],> 100 µM
same,TGI,[4],> 100 µM
same,TGI,[5],> 100 µM
same,TGI,[6],> 100 µM
same,TGI,[7],> 100 µM
same,TGI,[8],> 100 µM
same,TGI,[9],> 100 µM
same,TGI,[10],> 100 µM
same,TGI,[11],> 100 µM
same,TGI,[12],> 100 µM
same,TGI,[13],> 100 µM
same,TGI,[14],> 100 µM
same,TGI,[15],> 100 µM
same,TGI,[16],> 100 µM
same,TGI,[17],> 100 µM
same,TGI,[18],> 100 µM
same,TGI,[19],> 100 µM
same,TGI,[20],> 100 µM
same,TGI,[21],> 100 µM
same,TGI,[22],> 100 µM
same,TGI,[23],> 100 µM
same,TGI,[24],> 100 µM
same,TGI,[25],> 100 µM
same,TGI,[26],> 100 µM
same,TGI,[27],> 100 µM
same,TGI,[28],> 100 µM
same,TGI,[29],> 100 µM
same,TGI,[30],> 100 µM
same,TGI,[31],> 100 µM
same,TGI,[32],> 100 µM
same,TGI,[33],> 100 µM
same,TGI,[34],> 100 µM
same,TGI,[35],> 100 µM
same,TGI,[36],> 100 µM
same,TGI,[37],> 100 µM
same,TGI,[38],> 100 µM
same,TGI,[39],> 100 µM
same,TGI,[40],> 100 µM
same,TGI,[41],> 100 µM
same,TGI,[42],> 100 µM
same,TGI,[43],> 100 µM
same,TGI,[44],> 100 µM
same,TGI,[45],> 100 µM
same,TGI,[46],> 100 µM
same,TGI,[47],> 100 µM
same,TGI,[48],> 100 µM
same,TGI,[49],> 100 µM
same,TGI,[50],> 100 µM
same,TGI,[51],> 100 µM
same,TGI,[52],> 100 µM
same,TGI,[53],> 100 µM
same,TGI,[54],> 100 µM
same,TGI,[55],> 100 µM
same,TGI,[56],> 100 µM
same,TGI,[57],> 100 µM
same,TGI,[58],> 100 µM
same,TGI,[59],> 100 µM
CC(=O)NC(CC(C)C)C(=O)NC(Cc1ccccc1)C(=O)CCl (stereo not drawn) (Ac-Leu-Phe-CH2Cl; configuration not given here),TGI,[1],5.69 µM
same,TGI,[2],7.43 µM
same,TGI,[3],32.4 µM
same,TGI,[4],22.8 µM
same,TGI,[5],18.4 µM
same,TGI,[6],> 25 µM
same,TGI,[7],33.2 µM
same,TGI,[8],50.4 µM
same,TGI,[9],> 51.1 µM
same,TGI,[10],> 59.7 µM
same,TGI,[11],28.4 µM
same,TGI,[12],30.5 µM
same,TGI,[13],30.7 µM
same,TGI,[14],> 21.8 µM
same,TGI,[15],28.4 µM
same,TGI,[16],19 µM
same,TGI,[17],22.5 µM
same,TGI,[18],27 µM
same,TGI,[19],13.2 µM
same,TGI,[20],32.3 µM
same,TGI,[21],28.1 µM
same,TGI,[22],19.2 µM
same,TGI,[23],28 µM
same,TGI,[24],34.5 µM
same,TGI,[25],24.1 µM
same,TGI,[26],10.6 µM
same,TGI,[27],50.1 µM
same,TGI,[28],27.4 µM
same,TGI,[29],16.5 µM
same,TGI,[30],19.6 µM
same,TGI,[31],33.9 µM
same,TGI,[32],36.4 µM
same,TGI,[33],4.53 µM
same,TGI,[34],36 µM
same,TGI,[35],39.1 µM
same,TGI,[36],23.9 µM
same,TGI,[37],38.4 µM
same,TGI,[38],37.7 µM
same,TGI,[39],17 µM
same,TGI,[40],43.3 µM
same,TGI,[41],3.94 µM
same,TGI,[42],9.17 µM
same,TGI,[43],43.6 µM
same,TGI,[44],32.9 µM
same,TGI,[45],> 21.3 µM
same,TGI,[46],33.8 µM
same,TGI,[47],22.4 µM
same,TGI,[48],17 µM
same,TGI,[49],28.3 µM
same,TGI,[50],39.3 µM
same,TGI,[51],23.2 µM
same,TGI,[52],10.7 µM
same,TGI,[53],30.3 µM
same,TGI,[54],32.1 µM
same,TGI,[55],30.4 µM
same,TGI,[56],41.6 µM
same,TGI,[57],31.6 µM
same,TGI,[58],34.6 µM
same,TGI,[59],21.1 µM
C[C@H](CCC(=O)O)[C@H]1CC[C@H]2[C@@H]3[C@@H](O)C[C@@H]4C[C@H](O)CC[C@]4(C)[C@H]3CC[C@]12C,TGI,[1],> 100 µM
same,TGI,[2],> 100 µM
same,TGI,[3],> 100 µM
same,TGI,[4],> 100 µM
same,TGI,[5],> 100 µM
same,TGI,[6],> 100 µM
same,TGI,[7],> 100 µM
same,TGI,[8],> 100 µM
same,TGI,[9],> 100 µM
same,TGI,[10],> 100 µM
same,TGI,[11],> 100 µM
same,TGI,[12],> 100 µM
same,TGI,[13],> 100 µM
same,TGI,[14],> 100 µM
same,TGI,[15],> 100 µM
same,TGI,[16],> 100 µM
same,TGI,[17],> 100 µM
same,TGI,[18],> 100 µM
same,TGI,[19],> 100 µM
same,TGI,[20],> 100 µM
same,TGI,[21],> 100 µM
same,TGI,[22],> 100 µM
same,TGI,[23],> 100 µM
same,TGI,[24],> 100 µM
same,TGI,[25],> 100 µM
same,TGI,[26],> 100 µM
same,TGI,[27],> 100 µM
same,TGI,[28],> 100 µM
same,TGI,[29],> 100 µM
same,TGI,[30],> 100 µM
same,TGI,[31],> 100 µM
same,TGI,[32],> 100 µM
same,TGI,[33],> 100 µM
same,TGI,[34],> 100 µM
same,TGI,[35],> 100 µM
same,TGI,[36],> 100 µM
same,TGI,[37],> 100 µM
same,TGI,[38],> 100 µM
same,TGI,[39],> 100 µM
same,TGI,[40],> 100 µM
same,TGI,[41],> 100 µM
same,TGI,[42],> 100 µM
same,TGI,[43],> 100 µM
same,TGI,[44],> 100 µM
same,TGI,[45],> 100 µM
same,TGI,[46],> 100 µM
same,TGI,[47],> 100 µM
same,TGI,[48],> 100 µM
same,TGI,[49],> 100 µM
same,TGI,[50],> 100 µM
same,TGI,[51],> 100 µM
same,TGI,[52],> 100 µM
same,TGI,[53],> 100 µM
same,TGI,[54],> 100 µM
same,TGI,[55],> 100 µM
same,TGI,[56],> 100 µM
same,TGI,[57],> 100 µM
same,TGI,[58],> 100 µM
same,TGI,[59],> 100 µM
